3 compounds from article PMC12005787, “Synthetic Lethality of SHP2 and XIAP Suppresses Proliferation and Metastasis in KRAS‐mutant Nonsmall Cell Lung Cancer” (Advanced Science, 2025) can be followed below.

Experiment [1] deals with SHP2 phosphorylation in HeLa cells. The experiment is described as follows: SHP2 phosphorylation in EGF-stimulated HeLa cells (immunoblotting). The class given is cell-based. The following applies: for effect on the level of SHP2 phosphorylation: 20 µM for 2 h before EGF (10 ng mL^−1); for effect on EGF-induced phosphorylation of SHP2 (Y542 and Y580) and ERK: pretreatment 2 h, SHP099 20 µM, embelin different concentrations, EGF 10 ng mL^−1 2 h. The source says:
Figure 1 Embelin inhibits KRAS‐mutant tumor development. A) Correlation detection between mRNA expression of PTPN11 and KRAS in patients with LUAD (n = 706) using IlluminaHiSeq analysis with data derived from TCGA database. B) Correlation and number at risk of SHP2 expression with the overall survival probability of KRAS mutant lung cancer patients (n = 92) in the TCGA database. C) Protein expression and phosphorylation levels of SHP2 in RAS‐WT, NRAS, HRAS, and KRAS‐mutant cells. D) Effect of 3471 bioactive compounds at 10 µM against SHP2, with Na3VO4 serving as a control. Z’ factor values for 69 plates screened, Z’ = 0.81, S/N = 40.8. E) Binding energy between candidate drugs and SHP2 full‐length domain, catalytic region, and ΔSHP2 domain. F) HeLa cells were pretreated with DMSO, SHP099, or various compounds at 20 µM for 2 h before stimulation with EGF (10 ng mL^−1) for an additional 2 h. Cell lysates were subjected to immunoblotting with SHP2, p‐SHP2, and GAPDH antibodies. Data are from three independent experiments are presented. G) Spearman's correlation coefficient between drug‐related targets and KRAS mRNA in different types of tumors through the TCGA database. H) BCL2, TPO, RAF1, MCL1, MPL, and XIAP mRNA expression levels in LUAD tumors and adjacent tissues through the TCGA database. I) XIAP protein expression in RAS‐WT, NRAS‐mutant, HRAS‐mutant, and KRAS‐mutant cells. J) Effect of candidate drugs (10 µM) on colony formation in A549, NCI‐H2122, and NCI‐H1944 cells.
Figure 6 Embelin disrupts the SHP2 signaling complex in KRAS‐mutant NSCLC cells. A) HeLa cells were pretreated with SHP099 (20 µM) or different concentrations of embelin for 2 h and stimulated with EGF (10 ng mL^−1) for 2 h, the protein expression of RAS/MAPK signaling pathway in HeLa cells was detected. B) After treatment of embelin and SHP099 (10 µM) in NCI‐H2122 and A549 cells for 12 h, cell lysates were collected. One part was used to measure Gab1, Grb2, and SOS1 expression, and the other part underwent IP with SHP2 antibody. Then, binding of Gab1, Grb2, and SOS1 with SHP2 was detected. C) After treatment of embelin and SHP099 (10 µM) for 24 h, the expression of Gab1, p‐Gab1, Grb2, and SOS1 proteins in A549 and NCI‐H2122 cells were detected. […] Co‐localization of these proteins with SHP2 was detected using IF. […]
After given treatment, cells were lysed by ice bath with radio-immunoprecipitation assay (RIPA) buffer containing 1% phenylmethylsulphonyl fluoride (PMSF), and the supernatant was collected by centrifugation, and the protein concentration was subsequently determined using a BCA Protein Assay Kit. […]

For the next experiment, the system named is NCI‐H2122 cells. As to the kind of experiment: Cell cycle assay. The class given is cell-based, human. To be noted: embelin 15 µM or SHP099 10 µM for 72 h. The procedure: NCI-H2122 cells treated with given disposal were washed with pre-cooled PBS, fixed
with ice pre-cooled 70% ethanol at 4℃ for 2 h. And then PI staining solution (containing
RNaseA) was incubated in dark at 37℃ for 30 min. Red fluorescence and light scattering
were detected by flow cytometry at 488 nm. Cell cycle results were analyzed and visualized
using ModFit LT and FlowJo software. […]
(1 picture or pasted object on this page, not shown here)

On to `CCCCCCCCCCCC1=C(O)C(=O)C=C(O)C1=O` [Embelin], for which, in experiment [1], the “effect on the level of SHP2 phosphorylation” value is “significantly inhibited SHP2 phosphorylation”; the “effect on EGF-induced phosphorylation of SHP2 (Y542 and Y580) and ERK” value is on record as “significantly inhibited these phosphorylation levels”. Also, the “effect on cell cycle” value with NCI‐H2122 cells is “blocked the G2/M cycle”.

As for `O=C1Nc2ccc(I)cc2/C1=C/c1cc(Br)c(O)c(Br)c1` [S2872, GW5074], the “effect on the level of SHP2 phosphorylation” value in experiment [1] was “significantly inhibited SHP2 phosphorylation”.

On to `CC1(N)CCN(c2cnc(-c3cccc(Cl)c3Cl)c(N)n2)CC1` [SHP099], for which the “effect on EGF-induced phosphorylation of SHP2 (Y542 and Y580) and ERK” value in experiment [1] was “significantly inhibited these phosphorylation levels”. The “effect on cell cycle” value in the experiment with NCI‐H2122 cells is on record as “had no effect”.
